Source: patent publication US20060223812A1, “Treating neurodegenerative conditions” (MAX-PLANCK-GESELLSCHAFT ZUR FORDERUNGDER WISSENSCHAFTEN, …, priority 2004, published 2006)
Read-outs that look alike come from different tables or passages of the source.

Assays:
Assay type in all cases: biochemical
[1] = target: T1, tau construct K19 (Homo sapiens, UniProt P10636); assay: Thioflavine S assay, inhibition of PHF formation, K19; details: ThS fluorescence, 10 μM K19, heparin; read-out: Inhibition of tau aggregation IC50, K19
T1 construct: construct K19 containing three repeats; made in house; host or cells: E. coli
T1 sequence (P10636 with tags, fused parts or gaps isoform P10636-2 limits assumed): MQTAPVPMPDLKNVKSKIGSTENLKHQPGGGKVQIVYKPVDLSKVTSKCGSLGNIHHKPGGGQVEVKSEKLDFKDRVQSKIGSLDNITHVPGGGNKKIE
Description: (§1) Assembly of synthetic PHFs of tau protein (K19, 10 μM) was performed at 37° C. in the presence of polyanions (heparin; 5 μM) in 50 mM NH4Ac, pH 6.8. Assembly was followed either qualitatively by electron microscopy or quantitatively by fluorescence assay using thioflavine S. PHF-formation of tau isoforms htau23 and htau24 was carried out in PBS-buffer pH 7.4, 50 μM protein, and 12.5 μM heparin. The samples were incubated at 50° C. for 10 days. In the case of htau24 and K18, DTT was added at a final concentration of 1 mM each day in order to avoid intra-molecular disulfide crosslinking (Barghorn et al., 2000).
(§2) PHF formation was monitored by a thioflavine S fluorescence assay (Friedhoff et al., 1998a) adapted to a 384 well format. 60 μM of each substance was tested for its inhibitory effect on PHF formation. Using an automated pipetting system (Cybi-Well, CyBio, Jena, Germany) 50 mM NH4AC, 10 μM protein (K19), 60 μM compound and 5 μM heparin were mixed in 50 μl volume in a 384 well plate (black microtiter 384 plate round well, ThermoLabsystems, Dreiich, Germany) and incubated overnight at 37° C. As a control the protein was replaced with H2O to measure the possible fluorescence of the compounds. As a second control the reaction mixture without compound was treated in the same way.
(§3) After incubation with the compounds thioflavine S was added to the buffer to a final concentration of 20 μM and the signal was measured at excitation at 440 nm and emission at 521 nm in a spectrofluorimeter (Ascent; Labsystems, Frankfurt).
Inhibitory effects begun to appear at concentrations around 0.1 μM (ratio of protein to compound=100), and reached nearly complete inhibition at 100 μM compound concentration (ratio protein/compound=0.1). Overall, the curves of FIG. 2A decay fairly steeply over a compound concentration range of 2-3 orders of magnitude.
(A) extent of aggregation of tau construct K19 (10 μM) plotted vs. inhibitor concentration (range 1 fM-60 μM). The extent of aggregation was measured by the thioflavin S fluorescence assay and the degree of inhibition was plotted as percentage of control. All measurements were performed in triplicates.

[2] = target: T2, four repeat construct K18 (Homo sapiens, UniProt P10636); assay: Thioflavine S assay, inhibition of PHF formation, K18
T2 construct: made in house; host or cells: E. coli
T2 sequence (P10636 561-685 limits assumed): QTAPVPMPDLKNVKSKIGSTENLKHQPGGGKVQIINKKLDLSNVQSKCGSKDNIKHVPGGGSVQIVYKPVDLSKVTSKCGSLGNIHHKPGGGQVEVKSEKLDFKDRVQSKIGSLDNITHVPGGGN
Description: as §1, §2, §3
The four repeat construct K18 was tested under the same conditions (FIG. 2B). […] However, the decay of the curves of K18 is more gradual than those of K19, extending over 3-4 orders of magnitude of compound concentration (compare FIG. 2A).

[3] = target: T3, htau23 (Homo sapiens, UniProt P10636); assay: Thioflavine S assay, inhibition of PHF formation, htau23; details: for inhibition at 0.1 µM / inhibition at 60 µM: read-out: inhibition of PHF formation, htau23; for effect on PHF formation, htau23: low concentration
T3 construct: made in house; host or cells: E. coli
T3 sequence (P10636 1-352 isoform P10636-2): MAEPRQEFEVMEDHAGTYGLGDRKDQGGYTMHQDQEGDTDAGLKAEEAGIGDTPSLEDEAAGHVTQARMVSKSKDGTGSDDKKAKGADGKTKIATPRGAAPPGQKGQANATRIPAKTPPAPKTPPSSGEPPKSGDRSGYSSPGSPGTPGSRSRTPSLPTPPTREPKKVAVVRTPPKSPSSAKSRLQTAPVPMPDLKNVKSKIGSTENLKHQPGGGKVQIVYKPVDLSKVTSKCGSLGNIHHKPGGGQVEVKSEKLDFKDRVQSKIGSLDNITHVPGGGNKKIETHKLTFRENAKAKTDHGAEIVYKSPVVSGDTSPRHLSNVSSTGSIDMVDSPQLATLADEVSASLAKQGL
Description: as §1

[4] = target: T4, PHFs from K19 (Homo sapiens, UniProt P10636); assay: Thioflavine S assay, depolymerisation of pre-formed PHFs, K19
T4 construct: construct K19 containing three repeats; made in house; host or cells: E. coli
T4 sequence (P10636 with tags, fused parts or gaps isoform P10636-2 limits assumed): as the sequence (P10636 with tags, fused parts or gaps isoform P10636-2 limits assumed) above
Description: Depolymerisation of PHFs was monitored by the thioflavine S fluorescence. 60 μM of each compound was tested for its ability to depolymerise pre-formed PHFs. 50 mM NH4Ac, 10 μM PHF (K19), 60 μM compound and 5 μM heparin were mixed in 50 μl volume in a 384 well plate (black microtiter 384 plate round well, ThermoLabsystems, Dreiich, Germany) and incubated overnight at 37° C. As a control the reaction mixture without compound was treated in the same way.
After incubation thioflavine S was added to the buffer to a final concentration of 20 μM and the signal was measured at excitation at 440 nm and emission at 521 nm in a spectrofluorimeter (Ascent; Labsystems, Frankfurt).
(§4) The ThS assay was used to analyse the ability of the five compounds (see Example 4) to depolymerise pre-formed PHFs made from the repeat domain constructs K19 and K18 as well as from isoforms htau23 and htau24, containing 3 or 4 repeats, respectively.
(§5) The depolymerisation of K19 filaments (FIG. 4A) followed a similar concentration dependence as the inhibition experiment, with consistently similar or slightly higher DC50 values than the corresponding IC50 concentrations (Table 2). The ratios of IC50/DC50 range from 0.2-1.2. […] Here, too, the concentration dependence for K19 was steeper than for K18 (compare FIGS. 4A, B), similar to that of assembly inhibition (FIGS. 2A, B).
(§6) Tau constructs and isoforms K19, K18, hTau23, hTau24 (10 μM) were first aggregated into PHFs for 48 hours in the presence of 2.5 μM heparin (except K18/ΔK280) and the polymers separated from the soluble tau by centrifugation of 1 h at 100,000 g, redissolved and then exposed to the inhibitors overnight at 37° C. at the indicated concentrations (range 0.001-200 μM). The compounds are capable of disassembling PHFs with varying efficiencies (see Table 2).

[5] = target: T5, PHFs from K18 (Homo sapiens, UniProt P10636); assay: Thioflavine S assay, depolymerisation of pre-formed PHFs, K18
T5 construct: made in house; host or cells: E. coli
T5 sequence (P10636 561-685 limits assumed): as the sequence (P10636 561-685 limits assumed) above
Description: as §4, §5, §6

[6] = target: T6, PHFs from htau23 (Homo sapiens, UniProt P10636); assay: Thioflavine S assay, depolymerisation of pre-formed PHFs, htau23
T6 construct: made in house; host or cells: E. coli
T6 sequence (P10636 1-352 isoform P10636-2): as the sequence (P10636 1-352 isoform P10636-2) above
Description: as §4
PHFs assembled from the full length three repeat isoform htau23 were also sensitive to disaggregation (FIG. 4C). The DC50 values ranged from 7.0 to 60 μM.
as §6, with “μM).” for “μM). The compounds are capable of disassembling PHFs with varying efficiencies (see Table 2).”

[7] = target: T7, PHFs from htau24 (Homo sapiens, UniProt P10636); assay: Thioflavine S assay, depolymerisation of pre-formed PHFs, htau24
T7 construct: made in house; host or cells: E. coli
T7 sequence (P10636 1-383 isoform P10636-6): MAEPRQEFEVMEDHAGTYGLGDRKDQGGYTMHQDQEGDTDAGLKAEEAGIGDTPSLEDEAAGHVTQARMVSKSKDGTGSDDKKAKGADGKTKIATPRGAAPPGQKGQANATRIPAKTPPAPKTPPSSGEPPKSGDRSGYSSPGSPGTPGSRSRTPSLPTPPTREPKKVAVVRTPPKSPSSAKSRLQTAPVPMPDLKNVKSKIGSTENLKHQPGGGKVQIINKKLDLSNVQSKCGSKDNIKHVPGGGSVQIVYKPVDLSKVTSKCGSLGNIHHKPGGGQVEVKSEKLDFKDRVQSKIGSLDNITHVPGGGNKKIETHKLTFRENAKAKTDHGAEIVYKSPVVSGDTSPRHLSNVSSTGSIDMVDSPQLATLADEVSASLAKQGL
Description: as §4
as §6, with “μM).” for “μM). The compounds are capable of disassembling PHFs with varying efficiencies (see Table 2).”

[8] = ThS fluorescence, K18, heparin, read-out: Inhibition of tau aggregation IC50, K18
[9] = ThS fluorescence, read-out: Inhibition of tau aggregation IC50, hTau23
[10] = ThS fluorescence, overnight 37° C., read-out: Depolymerisation of PHFs DC50, K19
[11] = ThS fluorescence, overnight 37° C., read-out: Depolymerisation of PHFs DC50, K18
[12] = ThS fluorescence, read-out: Depolymerisation of PHFs DC50, hTau23
[13] = ThS fluorescence, pre-formed PHFs; read-out: Depolymerisation of PHFs DC50, hTau24

COc1cccc2c1C(=O)c1c(O)c3c(c(O)c1C2=O)CC(O)(C(C)=O)CC3OC1CC(N)C(O)C(C)O1 (stereo not drawn) [Daunorubicin, 8-Acetyl-10-(4-amino-5-hydroxy-6-methyl-tetrahydro-pyran-2-yloxy)-6,8,11-trihydroxy-1-methoxy-7,8,9,10-tetrahydro-naphthacene-5,12-dione, reference compound]
IC50 [1]: 1 µM
IC50 [2, 8]: 0.3 µM
IC50 [3, 9]: 0.1 µM
inhibition at 0.1 µM [3]: ~50%
inhibition at 60 µM [3]: ~90%
DC50 [4, 10]: 3.1 µM
DC50 [5, 11]: 4 µM
DC50 [6, 12]: 8.2 µM
depolymerisation of htau24 filaments [7]: only weak PHF breakers
DC50 [7, 13]: > 60 µM

O=C1c2ccc(O)c(O)c2C(=O)c2c(O)ccc(O)c21 [PHF016, 1,2,5,8-Tetrahydroxy-anthraquinone]
IC50 [1]: 6.8 µM
IC50 [2, 8]: 0.6 µM
inhibition at 60 µM ([3]; 60 μM compound): ~50%
IC50 [3, 9]: 1 µM
effect on PHF formation, htau23 [3]: only a slight effect
DC50 [4, 10]: 7.8 µM
DC50 [5, 11]: 7.3 µM
DC50 [6, 12]: > 60 µM
DC50 [7, 13]: 39.2 µM

O=C(c1ccccc1)c1ccc(O)c(O)c1O [PHF005, 1-Phenyl-1-(2,3,4-trihydroxy-phenyl)-methanone]
IC50 [1]: 6 µM
IC50 [2, 8]: 2.7 µM
inhibition at 60 µM ([3]; 60 μM compound): ~50%
IC50 [3, 9]: 1.1 µM
effect on PHF formation, htau23 [3]: only a slight effect
DC50 [4, 10]: 9.4 µM
DC50 [5, 11]: 20.8 µM
DC50 [6, 12]: > 60 µM
DC50 [7, 13]: 10.8 µM

Cc1cc(O)c2c(c1)C(=O)c1cc(O)cc(O)c1C2=O [Emodin, 1,3,8-Trihydroxy-6-methyl-anthraquinone]
IC50 [1]: 2.4 µM
IC50 [2, 8]: 0.3 µM
inhibition at 0.1 µM ([3]; 0.1 μM compound): ~50%
inhibition at 60 µM ([3]; 60 μM compound): ~90%
IC50 [3, 9]: 0.2 µM
DC50 [4, 10]: 2 µM
DC50 [5, 11]: 2 µM
DC50 [6, 12]: 7 µM
depolymerisation of htau24 filaments [7]: only weak PHF breakers
DC50 [7, 13]: > 60 µM

COc1cccc2c1C(=O)c1c(O)c3c(c(O)c1C2=O)CC(O)(C(=O)CO)CC3OC1CC(N)C(O)C(C)O1 (stereo not drawn) [Adriamycin, 10-(4-Amino-5-hydroxy-6-methyl-tetrahydro-pyran-2-yloxy)-6,8,11-trihydroxy-8-(2-hydroxyethanoyl)-1-methoxy-7,8,9,10-tetrahydro-naphthacene-5,12-dione, reference compound]
IC50 [1]: 17.6 µM
IC50 [2]: 0.1 µM
IC50 [3]: 0.2 µM
DC50 ([4]; read-out: Depolymerisation of PHFs DC50, K19, ThS fluorescence, overnight 37° C.): 27 µM
DC50 ([5]; read-out: Depolymerisation of PHFs DC50, K18, ThS fluorescence, overnight 37° C.): 4.3 µM
DC50 ([6]; read-out: Depolymerisation of PHFs DC50, hTau23, ThS fluorescence): 13.2 µM
DC50 ([7]; read-out: Depolymerisation of PHFs DC50, hTau24; ThS fluorescence, pre-formed PHFs): > 60 µM
